From PubChem BioAssay AID208 (DTP/NCI, 2004)
Values joined by “and” are separate entries in the source; they are usually repeats but may differ in a detail not shown here. Equal values may be shown once. Records with an inconclusive call do not appear. *1 amine or outer side, *2 acyl side, *3 side chain or, on linkers, in order; H or OH if unused. Where a SMILES comes first, the peptide text is derived from it. Bridges are numbered along the chain shown (N, C = ends). Roman numbers before positions name the chains, in order. [ ]: non-standard residue; d: D form. Actinocin(9to1) = Cc1c2oc3c(C)ccc(C(=O)[*:1])c3nc-2c(C(=O)[*:2])c(N)c1=O; aThr = C[C@H](O)[C@H](N)C(=O)O; NMeV = CN[C@H](C(=O)O)C(C)C; Sar = CNCC(=O)O

System: HT29 intrarenal xenograft, nude mice, tumor weight change
Assay: NCI In Vivo Anticancer Drug Screen. Data for tumor model HT29;CX-1 Human Adenocarcinoma (MER+) (intrarenal inoculation) in NU/NU BALB/C (nude) mice
Conditions: endpoint: mean tumor weight change, higher = larger tumour
Procedure: The antitumor activity of compounds was measured in mice bearing transplantable tumors. Survival or tumor size were measured and the results are expressed as the measurement made in the treated group (T) divided by the measurement made in the vehicle treated control group (C). The tumor model used in this assay is HT29;CX-1 Human Adenocarcinoma (MER+) (intrarenal inoculation) in NU/NU BALB/C (nude) mice

[1] = dose: 50.0 mg/kg/injection, schedule: Q04DX004 (sc), vehicle: saline with Tween-80
[2] = dose: 100.0 mg/kg/injection, schedule: Q04DX004 (sc), vehicle: saline with Tween-80
[3] = dose: 200.0 mg/kg/injection, schedule: Q04DX004 (sc), vehicle: saline with Tween-80
[4] = dose: 400.0 mg/kg/injection, schedule: Q04DX004 (sc), vehicle: saline with Tween-80
[5] = dose: 6.25 mg/kg/injection, schedule: Q01DX010 (sc), vehicle: saline
[6] = dose: 600.0 mg/kg/injection, schedule: Q04DX004 (sc), vehicle: saline
[7] = dose: 1200.0 mg/kg/injection, schedule: Q04DX004 (sc), vehicle: saline
[8] = dose: 2400.0 mg/kg/injection, schedule: Q04DX004 (sc), vehicle: saline
[9] = dose: 50.0 mg/kg/injection, schedule: Q01DX010 (sc), vehicle: saline
[10] = dose: 100.0 mg/kg/injection, schedule: Q01DX010 (sc), vehicle: saline
[11] = dose: 12.5 mg/kg/injection, schedule: Q04DX004 (sc), vehicle: saline with Tween-80
[12] = dose: 600.0 mg/kg/injection, schedule: Q04DX004 (sc), vehicle: Klucel (hydroxypropylcellulose) (HPC)
[13] = dose: 75.0 mg/kg/injection, schedule: Q04DX004 (sc), vehicle: saline with Tween-80

`O=c1c(O)c(-c2cc(O)c(O)c(O)c2)oc2cc(O)cc(O)c12` was tested, and the T/C (dose: 1.5 mg/kg/injection, schedule: Q04DX004 (sc), vehicle: saline with Tween-80) was 105 % of control, the T/C (dose: 3.0 mg/kg/injection, schedule: Q04DX004 (sc), vehicle: saline with Tween-80) was 114 % of control and the T/C (dose: 6.0 mg/kg/injection, schedule: Q04DX004 (sc), vehicle: saline with Tween-80) was 107 % of control. For the same molecule, the T/C (dose: 12.0 mg/kg/injection, schedule: Q04DX004 (sc), vehicle: saline with Tween-80) was 106 % of control, the T/C [1] was 63 % of control and the T/C [2] was 73 % of control. For the same molecule, the T/C [3] was 77 % of control and the T/C [4] was 103 % of control.

In the case of `CCOC(=O)NC1=C(N2CC2)C(=O)C(NC(=O)OCC)=C(N2CC2)C1=O`, the T/C (dose: 1.56 mg/kg/injection, schedule: Q01DX010 (sc), vehicle: saline) is reported as 120 % of control, the T/C (dose: 3.13 mg/kg/injection, schedule: Q01DX010 (sc), vehicle: saline) is reported as 88 % of control and the T/C [5] is reported as 107 % of control.

In the case of `c1ccc2c(c1)[As]=c1ccccc1=[As]2` (centres undefined), the T/C (dose: 9.38 mg/kg/injection, schedule: Q04DX004 (sc), vehicle: saline) is reported as 113 % of control, the T/C (dose: 18.72 mg/kg/injection, schedule: Q04DX004 (sc), vehicle: saline) is reported as 86 % of control and the T/C (dose: 37.5 mg/kg/injection, schedule: Q04DX004 (sc), vehicle: saline) is reported as 107 % of control. For the same molecule, the T/C (dose: 75.0 mg/kg/injection, schedule: Q04DX004 (sc), vehicle: saline) was 70 % of control.

`N#CC(OC1OC(COC2OC(CO)C(O)C(O)C2O)C(O)C(O)C1O)c1ccccc1` (centres undefined) was tested, and the T/C (dose: 300.0 mg/kg/injection, schedule: Q04DX004 (sc), vehicle: saline) was 95 % of control, the T/C [6] was 96 % of control and the T/C [7] was 88 % of control. The T/C [8] was 94 % of control.

`Cc1c2oc3c(C)ccc(C(=O)N[C@@H]4C(=O)N[C@H](C(C)C)C(=O)N5CCC[C@H]5C(=O)N(C)CC(=O)N(C)[C@@H](C(C)C)C(=O)O[C@H]4C)c3nc-2c(C(=O)N[C@@H]2C(=O)N[C@H](C(C)C)C(=O)N3CCC[C@H]3C(=O)N(C)CC(=O)N(C)[C@@H](C(C)C)C(=O)O[C@H]2C)c(N)c1=O` (I: [aThr][dV]P[Sar][NMeV] / II: [aThr][dV]P[Sar][NMeV]; ester I:1-I:C, II:1-II:C; linker I:N-II:N via Actinocin(9to1)) was tested, and the T/C (dose: 0.03 mg/kg/injection, schedule: Q04DX004 (ip), vehicle: saline) was 77 % of control, the T/C (dose: 0.05 mg/kg/injection, schedule: Q04DX004 (ip), vehicle: saline) was 77 % of control and the T/C (dose: 0.08 mg/kg/injection, schedule: Q04DX004 (ip), vehicle: saline) was 97 % of control.

`CCCCCCCCCCCCCCCCCCOCC(COP(=O)([O-])OCC[N+](C)(C)C)OC` (centres undefined) was tested, and the T/C (dose: 150.0 mg/kg/injection, schedule: Q04DX004 (sc), vehicle: saline) was 121 % of control.

With `CCCCc1ccc2nc(NC(=O)OC)[nH]c2c1` the T/C (dose: 25.0 mg/kg/injection, schedule: Q01DX010 (sc), vehicle: saline with Tween-80) was 108 % of control, the T/C (dose: 100.0 mg/kg/injection, schedule: Q01DX010 (sc), vehicle: saline with Tween-80) was 90 % of control and the T/C (dose: 200.0 mg/kg/injection, schedule: Q01DX010 (sc), vehicle: saline with Tween-80) was 94 % of control.

In the case of `Cc1ccc(S(=O)(=O)N/N=C/C(Br)=C(/Br)C(=O)O)cc1`, the T/C (dose: 1.25 mg/kg/injection, schedule: Q04DX004 (sc), vehicle: saline) is reported as 103 % of control, the T/C (dose: 2.5 mg/kg/injection, schedule: Q04DX004 (sc), vehicle: saline) is reported as 78 % of control and the T/C (dose: 5.0 mg/kg/injection, schedule: Q04DX004 (sc), vehicle: saline) is reported as 105 % of control.

`C[N+](C)(C)c1ncnc2nc[nH]c12` was tested, and the T/C [9] was 111 % of control, the T/C [10] was 83 % of control and the T/C (dose: 200.0 mg/kg/injection, schedule: Q01DX010 (sc), vehicle: saline) was 29 % of control.

`NC1(C(=O)O)CCCC1` was tested, and the T/C [9] was 37 % of control and 40 % of control and the T/C [10] was 12 % of control and 22 % of control.

`CN(C)/N=N/c1nc[nH]c1C(N)=O` was tested, and the T/C (dose: 100.0 mg/kg/injection, schedule: Q04DX004 (ip), vehicle: saline) was 157 % of control and the T/C (dose: 150.0 mg/kg/injection, schedule: Q04DX004 (ip), vehicle: saline) was 75 % of control.

`C[CH2][Sn]([CH2]C)([O]S(C)(=O)=O)[O]S(C)(=O)=O` was tested, and the T/C (dose: 6.25 mg/kg/injection, schedule: Q04DX004 (sc), vehicle: saline with Tween-80) was 169 % of control and the T/C [11] was 107 % of control.

With `CC12CCC3C(CCC4CC(OC(=O)Cc5ccc(N(CCCl)CCCl)cc5)CCC43C)C1CCC(=O)N2` (centres undefined) the T/C [11] was 99 % of control, the T/C (dose: 25.0 mg/kg/injection, schedule: Q04DX004 (sc), vehicle: saline with Tween-80) was 109 % of control and the T/C [1] was 77 % of control. For the same molecule, the T/C [2] was 38 % of control.

For `COc1cc(C(=O)c2cocc2C(=O)c2ccc3c(c2)OCO3)cc(OC)c1OC`, the T/C (dose: 300.0 mg/kg/injection, schedule: Q04DX004 (sc), vehicle: Klucel (hydroxypropylcellulose) (HPC)) was 103 % of control, the T/C [12] was 57 % of control and the T/C (dose: 1200.0 mg/kg/injection, schedule: Q04DX004 (sc), vehicle: Klucel (hydroxypropylcellulose) (HPC)) was 89 % of control. The T/C (dose: 2400.0 mg/kg/injection, schedule: Q04DX004 (sc), vehicle: Klucel (hydroxypropylcellulose) (HPC)) was 66 % of control.

`CN(CO)c1nc(N(C)CO)nc(N(C)CO)n1` was tested, and the T/C [5] was 100 % of control, the T/C (dose: 25.0 mg/kg/injection, schedule: Q01DX010 (sc), vehicle: saline) was 92 % of control and the T/C [10] was 6 % of control.

`c1ccc2c(c1)-c1ccccc1C1NC21` (centres undefined) was tested, and the T/C [13] was 41 % of control.

For `COc1cc2c3c(cccc3c1)C(=O)N(CCN(C)C)C2=O`, the T/C (dose: 37.5 mg/kg/injection, schedule: Q04DX004 (sc), vehicle: saline with Tween-80) was 72 % of control, the T/C [13] was 98 % of control and the T/C (dose: 150.0 mg/kg/injection, schedule: Q04DX004 (sc), vehicle: saline with Tween-80) was 74 % of control. For the same molecule, the T/C (dose: 300.0 mg/kg/injection, schedule: Q04DX004 (sc), vehicle: saline with Tween-80) was 105 % of control.

In the case of `CNC1C(O)C(OC2C(N)CC(N)C(OC3OC(C(C)O)C(O)C(O)C3N)C2O)OCC1(C)O` (centres undefined), the T/C (dose: 50.0 mg/kg/injection, schedule: Q04DX004 (ip), vehicle: saline) is reported as 102 % of control.

For `C[C@H]1C[C@@H]2[C@H]([C@@H](O)C[C@@]3(C)[C@H]2CC[C@]3(O)C(=O)CO)[C@@]2(C)C=CC(=O)C=C12`, the T/C (dose: 200.0 mg/kg/injection, schedule: Q04DX004 (sc), vehicle: Klucel (hydroxypropylcellulose) (HPC)) was 14 % of control, the T/C (dose: 400.0 mg/kg/injection, schedule: Q04DX004 (sc), vehicle: Klucel (hydroxypropylcellulose) (HPC)) was 19 % of control and the T/C (dose: 800.0 mg/kg/injection, schedule: Q04DX004 (sc), vehicle: Klucel (hydroxypropylcellulose) (HPC)) was 29 % of control.

`Cc1cc(N(CC(C)Br)CC(C)Br)ccc1N=Nc1ccccc1C(=O)O` (centres undefined) was tested, and the T/C (dose: 3.13 mg/kg/injection, schedule: Q01DX010 (sc), vehicle: saline with Tween-80) was 65 % of control, the T/C (dose: 6.25 mg/kg/injection, schedule: Q01DX010 (sc), vehicle: saline with Tween-80) was 55 % of control and the T/C (dose: 12.5 mg/kg/injection, schedule: Q01DX010 (sc), vehicle: saline with Tween-80) was 57 % of control.

For `Nc1ccn([C@@H](C=O)O[C@@H](C=O)CO)c(=O)n1`, the T/C (dose: 50.0 mg/kg/injection, schedule: Q04DX004 (sc), vehicle: saline) was 117 % of control, the T/C (dose: 100.0 mg/kg/injection, schedule: Q04DX004 (sc), vehicle: saline) was 71 % of control and the T/C (dose: 200.0 mg/kg/injection, schedule: Q04DX004 (sc), vehicle: saline) was 113 % of control.

`O=C(O)CP(=O)(O)O` was tested, and the T/C [6] was 51 % of control, the T/C [7] was 118 % of control and the T/C [8] was 34 % of control.

`CCC1=C[C@H]2CN(CCc3c([nH]c4ccccc34)[C@@](C(=O)OC)(c3cc4c(cc3OC)N(C)[C@H]3[C@@](O)(C(=O)NC)[C@H](OC(C)=O)[C@]5(CC)C=CCN6CC[C@]43[C@@H]65)C2)C1` was tested, and the T/C (dose: 2.0 mg/kg/injection, schedule: Q04DX004 (sc), vehicle: water) was -17 % of control and 8 % of control and the T/C (dose: 4.0 mg/kg/injection, schedule: Q04DX004 (sc), vehicle: water) was -99 % of control.

In the case of `CCc1ccc(C2=C(O)C(=O)C(c3ccc(CC)cc3)=C(O)C2=O)cc1`, the T/C [2] is reported as 112 % of control, the T/C [3] is reported as 91 % of control and the T/C [4] is reported as 102 % of control.

`O=C1N[C@H]2[C@H](CS[C@H]2CCCCC(=O)N(CCP(c2ccccc2)c2ccccc2)CCP(c2ccccc2)c2ccccc2)N1` was tested, and the T/C (dose: 150.0 mg/kg/injection, schedule: Q04DX004 (sc), vehicle: Klucel (hydroxypropylcellulose) (HPC)) was 121 % of control and the T/C [12] was 86 % of control.
